In US7560466B2, “Methods of treating or preventing autoimmune diseases with 2,4-pyrimidinediamine compounds” (Rigel Pharmaceuticals, Inc., priority 2003, dated 2009) one finds IC50 data, which are given here for 24 compounds.

Like-named read-outs stand apart in the source and are kept apart here.

Experiment [1] has as its system cultured human mast cells (CHMC), IgE-induced degranulation. Put plainly: CHMC low cell density IgE activation: tryptase assay. It counts as cell-based. In a few lines: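 Tryptase release read fluorogenically (30 min, room temperature) from supernatants of anti-IgE-challenged cultured human mucosal mast cells derived from umbilical cord CD34+ cells, at low density of 1000–1500 cells/well.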

Experiment [2] has as its system cultured human mast cells (CHMC), ionomycin-induced degranulation. Nature of the experiment: CHMC low cell density ionomycin activation: tryptase assay. It counts as cell-based. As to conditions: ionomycin activation, read-out: LD Tryptase, CHMC, Iono, 3pt.
Setting [3] is: CHMC low cell density, 3pt, read-out: LD Tryptase, CHMC, IgE, 3pt.
[4] abbreviates: CHMC low cell density, 8pt, read-out: LD Tryptase, CHMC, IgE, 8pt.
Setting [5] is: low cell density CHMC, 3-point, read-out: LD Tryptase, CHMC, IgE, 3pt.
[6] abbreviates: low cell density CHMC, 8-point, read-out: LD Tryptase, CHMC, IgE, 8pt.

Turning to `COC(=O)Cn1ccc2ccc(Nc3ncc(F)c(Nc4ccc5c(c4)OCCO5)n3)cc21` [Compound 642, N4-(3,4-Ethylenedioxyphenyl)-5-fluoro-N2-[1-(methoxycarbonylmethylene)indol-6-yl]-2,4-pyrimidinediamine], the IC50 in experiment [1] (setting [3]) was below 10 µM; in experiment [1] (setting [4]), below 10 µM; in experiment [2] (CHMC low cell density, 3pt), above 10 µM.

With `COC(=O)Cn1ccc2cc(Nc3ncc(F)c(Nc4ccc5c(c4)NC(=O)C(C)(C)O5)n3)ccc21` [Compound 643, N4-(2,2-Dimethyl-3-oxo-4H-benz[1,4]oxazin-6-yl)-5-fluoro-N2-[1-(methoxycarbonylmethylene)indol-5-yl]-2,4-pyrimidinediamine], the IC50 in experiment [1] (setting [3]) is below 10 µM; in experiment [1] (setting [4]) it was below 10 µM; in experiment [2] (CHMC low cell density, 3pt), above 10 µM.

`COC(=O)Cn1ccc2cc(Nc3ncc(F)c(Nc4ccc5c(c4)OCCO5)n3)ccc21` [Compound 647, N4-(3,4-Ethylenedioxyphenyl)-5-fluoro-N2-[1-(methoxycarbonylmethylene)indol-5-yl]-2,4-pyrimidinediamine]: the IC50 in experiment [1] (setting [3]) is below 10 µM; in experiment [1] (setting [4]) it was below 10 µM; in experiment [2] (CHMC low cell density, 3pt), above 10 µM.

As to `CNC(=O)Cn1ccc2ccc(Nc3ncc(F)c(Nc4ccc5c(c4)OCCO5)n3)cc21` [Compound 649, N4-(3,4-Ethylenedioxyphenyl)-5-fluoro-N2-[1-(N-methylamino)carbonylmethyleneindol-6-yl]-2,4-pyrimidinediamine], the IC50 was below 10 µM in experiment [1] (setting [3]); below 10 µM in experiment [1] (setting [4]); above 10 µM in experiment [2] (CHMC low cell density, 3pt).

For `CC1(C)Oc2ccc(Nc3nc(Nc4ccc5c(cnn5CCCNS(C)(=O)=O)c4)ncc3F)nc2NC1=O` [Compound 836, N4-(2,2-Dimethyl-3-oxo-4H-5-pyrid[1,4]oxazin-6-yl)-5-fluoro-N2-[1-[3-(N-methylsulfonylamino)propyl]indazol-5-yl]-2,4-pyrimidinediamine], the IC50 is below 10 µM in experiment [1] (setting [3]); below 10 µM in experiment [1] (setting [4]); above 10 µM in experiment [2] (CHMC low cell density, 3pt).

In the case of `Cc1cc(Nc2ncc(F)c(Nc3ccc4c(n3)NC(=O)C(C)(C)O4)n2)cc(Cl)c1O` [Compound 996, N2-(3-Chloro-4-hydroxy-5-methylphenyl)-N4-(2,2-dimethyl-3-oxo-4H-5-pyrid[1,4]oxazin-6-yl)-5-fluoro-2,4-pyrimidinediamine], the IC50 in experiment [1] (setting [3]) was below 10 µM; in experiment [1] (setting [4]) it was below 10 µM; in experiment [2] (CHMC low cell density, 3pt), above 10 µM.

Regarding `CNC(=O)COc1cccc(Nc2ncc(F)c(Nc3ccc4c(c3)NCC(C)(C)O4)n2)c1` [Compound 1000, N4-(3,4-Dihydro-2,2-dimethyl-4H-benz[1,4]oxazin-6-yl)-5-fluoro-N2-[3-(N-methylamino)carbonylmethyleneoxyphenyl]-2,4-pyrimidinediamine], the IC50 in experiment [1] (setting [4]) was below 10 µM; in experiment [2] (CHMC low cell density, 3pt), below 10 µM.

Take `Cc1ccccc1Nc1ncc(F)c(Nc2ccc3c(n2)NC(=O)C(C)(C)O3)n1` [Compound 1004, N4-(2,2-Dimethyl-3-oxo-4H-5-pyrid[1,4]oxazin-6-yl)-5-fluoro-N2-(2-methylphenyl)-2,4-pyrimidinediamine]: the IC50 is below 10 µM in experiment [1] (setting [3]) and above 10 µM in experiment [2] (CHMC low cell density, 3pt).

For the compound `CN1C(=O)C(C)(C)Oc2ccc(N(C)c3nc(Cl)ncc3F)nc21` [Compound 1005, 2-Chloro-5-fluoro-N4-methyl-N4-(3-oxo-2,2,4-trimethyl-5-pyrid[1,4]oxazin-6-yl)-4-pyrimdinea mine], the IC50 in experiment [1] (setting [3]) was below 10 µM; in experiment [2] (CHMC low cell density, 3pt) it was above 10 µM.

Turning to `CN1C(=O)C(C)(C)Oc2ccc(Nc3nc(Cl)ncc3F)nc21` [Compound 1006, 2-Chloro-5-fluoro-N4-(3-oxo-2,2,4-trimethyl-5-pyrid[1,4]oxazin-6-yl)-4-pyrimidinea mine], the IC50 in experiment [1] (setting [3]) is above 10 µM; in experiment [2] (CHMC low cell density, 3pt) it was above 10 µM.

On to `COc1c(C)cc(Nc2ncc(F)c(Nc3ccc4c(n3)N(C)C(=O)C(C)(C)O4)n2)cc1Cl` [Compound 1009, N2-(3-Chloro-4-methoxy-5-methylphenyl)-5-fluoro-N4-(3-oxo-2,2,4-trimethyl-5-pyrid[1,4]oxazin-6-yl)-2,4-pyrimidinediamine], for which the IC50 in experiment [1] (setting [3]) is below 10 µM; in experiment [1] (setting [4]), below 10 µM; in experiment [2] (CHMC low cell density, 3pt), above 10 µM.

For the compound `CCOc1c(C)cc(Nc2ncc(F)c(Nc3ccc4c(n3)NC(=O)C(C)(C)O4)n2)cc1Cl` [Compound 1010, N2-(3-Chloro-4-ethoxy-5-methylphenyl)-N4-(2,2-dimethyl-3-oxo-4H-5-pyrid[1,4]oxazin-6-yl)-5-fluoro-2,4-pyrimidinediamine], the IC50 in experiment [1] (setting [3]) is below 10 µM; in experiment [2] (CHMC low cell density, 3pt) it was above 10 µM.

On to `CN1C(=O)C(C)(C)Oc2ccc(Nc3nc(Nc4cccc(-c5ncco5)c4)ncc3F)nc21` [Compound 1012, 5-Fluoro-N2-[3-(oxazol-2-yl)phenyl]-N4-[3-oxo-2,2,4-trimethyl-5-pyrid[1,4]oxazin-6-yl]-2,4-pyrimidinediamine], for which the IC50 in experiment [1] (setting [3]) was below 10 µM; in experiment [1] (setting [4]), below 10 µM; in experiment [2] (CHMC low cell density, 3pt), above 10 µM.

In the case of `CN1C(=O)C(C)(C)Oc2ccc(Nc3nc(Nc4ccc(-c5ncco5)cc4)ncc3F)nc21` [Compound 1013, 5-Fluoro-N2-[4-(oxazol-2-yl)phenyl]-N4-[3-oxo-2,2,4-trimethyl-5-pyrid[1,4]oxazin-6-yl]-2,4-pyrimidinediamine], the IC50 in experiment [1] (setting [3]) is below 10 µM; in experiment [2] (CHMC low cell density, 3pt), above 10 µM.

With `CCOC(=O)COc1c(C)cc(Nc2ncc(F)c(Nc3ccc4c(c3)NC(=O)C(C)(C)O4)n2)cc1Cl` [Compound 1014, N2-[3-Chloro-4-ethoxycarbonylmethyleneoxy-5-methylphenyl]-N4-(2,2-dimethyl-3-oxo-4H-benz[1,4]oxazin-6-yl)-5-fluoro-2,4-pyrimidinediamine], the IC50 in experiment [1] (setting [5]) was below 10 µM; in experiment [1] (setting [6]) it was below 10 µM; in experiment [2] (low cell density CHMC, 3-point), below 10 µM.

Turning to `CNC(=O)COc1cccc(Nc2ncc(F)c(Nc3ccc4c(n3)N(C)C(=O)C(C)(C)O4)n2)c1` [Compound 1015, 5-Fluoro-N2-[3-(N-methylamino)carbonylmethyleneoxyphenyl]-N4-[3-oxo-2,2,4-trimethyl-5-pyrid[1,4]oxazin-6-yl]-2,4-pyrimidinediamine], the IC50 in experiment [1] (setting [5]) is below 10 µM; in experiment [1] (setting [6]), below 10 µM; in experiment [2] (low cell density CHMC, 3-point) it was above 10 µM.

With `CN1C(=O)C(C)(C)Oc2ccc(Nc3nc(Nc4cccc(-c5cnco5)c4)ncc3F)nc21` [Compound 1017, 5-Fluoro-N2-[3-(oxazol-5-yl)phenyl]-N4-[3-oxo-2,2,4-trimethyl-5-pyrid[1,4]oxazin-6-yl]-2,4-pyrimidinediamine], the IC50 in experiment [1] (setting [5]) is below 10 µM; in experiment [1] (setting [6]), below 10 µM; in experiment [2] (low cell density CHMC, 3-point) it was above 10 µM.

With `CNC(=O)COc1cccc(Nc2ncc(F)c(N(C)c3ccc4c(c3)NC(=O)C(C)(C)O4)n2)c1` [Compound 1022, N4-(2,2-Dimethyl-3-oxo-4H-benz[1,4]oxazin-6-yl)-5-fluoro-N4-methyl-N2-[3-(N-methylamino)carbonylmethyleneoxyphenyl]-2,4-pyrimidinediamine], the IC50 in experiment [1] (setting [5]) was below 10 µM; in experiment [1] (setting [6]) it was below 10 µM; in experiment [2] (low cell density CHMC, 3-point), above 10 µM.

For `Cc1cc(Nc2ncc(F)c(Nc3ccc4c(n3)NC(=O)C(C)(C)O4)n2)cc(Cl)c1OC1CCCC1` [Compound 1027, N2-(3-Chloro-4-cyclopentyloxy-5-methylphenyl)-N4-(2,2-dimethyl-3-oxo-4H-5-pyrid[1,4]oxazin-6-yl)-5-fluoro-2,4-pyrimidinediamine], the IC50 in experiment [1] (setting [5]) was below 10 µM; in experiment [2] (low cell density CHMC, 3-point) it was above 10 µM.

For `CC1(C)Oc2ccc(Nc3nc(Nc4cccc(-c5ncco5)c4)ncc3F)nc2NC1=O` [Compound 1028, N4-(2,2-Dimethyl-3-oxo-4H-5-pyrid[1,4]oxazin-6-yl)-5-fluoro-N2-[3-(oxazol-2-yl)phenyl]-2,4-pyrimidinediamine], the IC50 in experiment [1] (setting [5]) is below 10 µM; in experiment [1] (setting [6]), below 10 µM; in experiment [2] (low cell density CHMC, 3-point), above 10 µM.

Take `CC1(C)Oc2ccc(Nc3nc(Nc4cccc(-c5cocn5)c4)ncc3F)nc2NC1=O` [Compound 1029, N4-(2,2-Dimethyl-3-oxo-4H-5-pyrid[1,4]oxazin-6-yl)-5-fluoro-N2-[3-(oxazol-4-yl)phenyl]-2,4-pyrimidinediamine]: the IC50 in experiment [1] (setting [5]) is below 10 µM; in experiment [1] (setting [6]), below 10 µM; in experiment [2] (low cell density CHMC, 3-point) it was above 10 µM.

On to `CNC(=O)COc1c(C)cc(Nc2ncc(F)c(Nc3ccc4c(n3)NC(=O)C(C)(C)O4)n2)cc1Cl` [Compound 1037, N2-[3-Chloro-5-methyl-4-(N-methylamino)carbonylmethyleneoxyphenyl]-N4-(2,2-dimethyl-3-oxo-4H-5-pyrid[1,4]oxazin-6-yl)-5-fluoro-2,4-pyrimidinediamine], for which the IC50 in experiment [1] (setting [6]) was below 10 µM; in experiment [2] (low cell density CHMC, 3-point) it was above 10 µM.

`CCOC(=O)COc1c(C)cc(Nc2ncc(F)c(Nc3ccc4c(n3)NC(=O)C(C)(C)O4)n2)cc1C` [Compound 1038, N2-(3,5-Dimethyl-4-ethoxycarbonylmethyleneoxyphenyl)-N4-(2,2-dimethyl-3-oxo-4H-5-pyrid[1,4]oxazin-6-yl)-5-fluoro-2,4-pyrimidinediamine]: the IC50 in experiment [1] (setting [6]) was below 10 µM; in experiment [2] (low cell density CHMC, 3-point) it was above 10 µM.

`Cc1cc(Nc2ncc(F)c(Nc3ccc4c(n3)NC(=O)C(C)(C)O4)n2)cc(Cl)c1OC(C)C` [Compound 1040, N2-(3-Chloro-4-isopropoxy-5-methylphenyl)-N4-(2,2-dimethyl-3-oxo-4H-5-pyrid[1,4]oxazin-6-yl)-5-fluoro-2,4-pyrimidinediamine]: the IC50 in experiment [1] (setting [6]) is above 10 µM; in experiment [2] (low cell density CHMC, 3-point), below 10 µM.
